Consider one compound from paper PMC6547740, “Potent and specific MTH1 inhibitors targeting gastric cancer” (Cell Death & Disease, 2019).

For one series, the system named is EC9706 cells. Description: MTT cell viability, EC9706. Type of series: cell-based. The note with it: Homo sapiens, esophageal cancer cell line, 72 h. The procedure: (§1) The cell viability was determined by 3-(4,5-dimethylthiazol-2-yl)-2,5-diphenyltetrazolium bromide (MTT) assay, according to the manufacturer’s instructions. 1 day before treatment, cells were seeded into 96-well plates at a concentration of 2–5 × 10^3 cells per well, followed by treatment with fresh medium containing serial dilutions of candidate compounds for 48 or 72 h, 20 μL of MTT solution (5 mg/mL in PBS) was then added to each well. After treatment, the plates were incubated at 37 °C for another 4 h. Subsequently, the MTT solution was removed and 150 μL of DMSO was added to each well for 10 min, and then the plates were shaken to dissolve the dark blue crystal (formazan), the absorbance was detected at 570 nm using a BioTek microplate reader. The data were analyzed using SPSS 20 software.

In another series the target is T1, MTH2 (Homo sapiens, UniProt Q9NV35).
T1 construct: endogenous in cells; host or cells: MGC-803 (human gastric cancer cell line)
T1 sequence (Q9NV35 whole entry): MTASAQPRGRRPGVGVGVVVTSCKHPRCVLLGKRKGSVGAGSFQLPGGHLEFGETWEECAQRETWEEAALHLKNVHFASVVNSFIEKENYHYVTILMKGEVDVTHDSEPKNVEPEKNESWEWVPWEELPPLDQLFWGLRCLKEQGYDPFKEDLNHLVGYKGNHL
Briefly: Cellular thermal shift assay (CETSA), MTH2. In kind it is binding. As to conditions: MGC-803 cells, 50 µM compound, heated 10 min from 43 to 61 °C. As for the experimental part:
(§2) Cellular thermal shift assay (CETSA), also known as the target engagement assay was one-way to detect the intracellular interaction ability of compounds with its specific target. Firstly, cells were seeded into T75 culture flasks and cultured overnight. Then, the cells were treated with cell media containing 1‰ DMSO as blank control and candidate compounds for 3–5 h. Next, the cells were collected by centrifugation and resuspended by PBS, then the cells were aliquoted into 7 PCR tubes and heated using PCR instrument for 10 min from 43 to 61 °C. After that, cells were lysed using liquid nitrogen and three repeated cycles of freeze-thawing. Then, samples were centrifuged at 12,000 × g for 20 min at 4 °C. Supernatants were denatured at 100 °C for 10 min and kept at −20 °C until Western Blot analysis.

Series [1] has as its system GES-1 cells. Description: Colony formation assay, GES-1. Type of series: cell-based, human. As to conditions: GES-1 gastric normal cells, 7 days treatment. The procedure: The day before treatment, cells were seeded into six-well plates at a concentration of 1 × 10^3 cells per well, and then the media were replaced with fresh media containing serial concentrations of candidate compounds. After 7 days of treatment, the cells were fixed with 75% ethanol, stained with 0.1% crystal violet solution and captured by the microscopy (Leica). After that, the crystal violet crystals were dissolved by adding methanol. The absorbance at 595 nm was measured by a BioTek micro plate reader. In the end, the data were analyzed using the GraphPad Prism 5 software.

In the next series the target is T2, OGG1 (Homo sapiens, UniProt O15527).
T2 construct: endogenous in cells; host or cells: MGC-803 (human gastric cancer cell line)
T2 sequence (O15527 whole entry): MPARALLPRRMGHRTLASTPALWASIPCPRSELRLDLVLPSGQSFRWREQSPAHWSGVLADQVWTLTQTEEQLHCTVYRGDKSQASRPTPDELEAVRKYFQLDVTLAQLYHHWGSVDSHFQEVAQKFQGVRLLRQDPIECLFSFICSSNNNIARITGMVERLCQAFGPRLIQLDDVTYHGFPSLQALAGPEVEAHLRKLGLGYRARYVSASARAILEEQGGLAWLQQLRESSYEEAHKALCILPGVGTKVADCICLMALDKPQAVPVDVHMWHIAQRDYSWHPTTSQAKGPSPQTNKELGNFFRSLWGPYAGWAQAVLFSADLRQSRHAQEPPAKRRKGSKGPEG
Description: Cellular thermal shift assay (CETSA), OGG1. Type of series: binding. As to conditions: MGC-803 cells, 50 µM compound, heated 10 min from 43 to 61 °C. The procedure: as §2

The subject of series [2] is HGC-27 cells. Description: MTT cell viability, HGC-27. In kind it is cell-based. The note with it: Homo sapiens, gastric cancer cell line, 72 h. As for the experimental part: as §1
The subject of series [3] is MGC-803 cells. Description: 8-oxo-dG assay (Cy3-conjugated avidin), MGC-803. As to conditions: MGC-803, 5 µM, 48 h, compared with DMSO. In kind it is cell-based, human. The procedure: (§3) Intracellular 8-oxo-dG levels were measured by staining with Cy3-conjugated avidin[65]. Cells were seeded on coverslips in 24-well plates (1–1.5 × 10^4 cells/well) overnight, and then transfected with candidate compounds. After 48 h, the cells were fixed with ice-cold methanol in Tris-buffered saline (TBS) for 15 min and blocked, using TBS with 0.1% Triton X-100 and 15% fetal bovine serum for 1 h. Then, the cells were stained with Cy3-conjugated avidin (0.5 µg/mL) for 1 h at room temperature. DNA was counterstained with 4,6-diamidino-2-phenylindole(DAPI). Images were acquired in a Nikon Eclipse TE 2000-S fluorescence microscope.

In series [4] the test system is MGC-803 cells-derived xenograft. Description: MGC-803 cells-derived xenograft model. In kind it is in vivo, BALB/c nude mice. Also noted: average tumor volumes in comparison with oil treatment group: scale not given here. As to conditions: 40 mg/kg, gavage once a day for 25 days. The procedure: (§4) All animal experiments were conducted according to the guidelines of the Institutional Animal Care and Use Committee of Zhengzhou University. Four or five-week-old female BALB/c nude mice, weighing 18–21 g were purchased from Hunan Slack Scene of Laboratory Animal Company, LTD (Hunan, China). They received abundant food and water and were housed in a laminar flow under sterilized condition. 200 µL MGC-803 cells at the concentration of 5 × 10^7/mL were injected into the right scapular region of the mice. When most of the tumor volumes reached 100 mm^3, mice were randomly divided into oil (solvent) group and MI-743(40 mg/kg) treatment group. Then, they received gavage daily for 25 days. The body weight was weighed every 2 days and the tumor volumes were measured every 4 days. At the 25th day, the tumors were surgically removed and weighed. The tumor size was determined by vernier caliper measurements and the tumor and major organs were fixed in 4% buffered paraformaldehyde and paraffin-embedded for hematoxylin and eosin (HE) staining, immunohistochemistry (IHC) and TUNEL assay.

In another series the test system is HepG2 cells. Description: MTT cell viability, HepG2. In kind it is cell-based. The note with it: Homo sapiens, liver cancer cell line, 72 h. The procedure: as §1
A further series concerns MKN45 cells. Briefly: MTT cell viability, MKN45. Type of series: cell-based. The note with it: Homo sapiens, MKN-45, gastric cancer cell line, 72 h. As for the experimental part: as §1
Another series concerns the target MTH1 (Homo sapiens, UniProt P36639). Description: Cellular thermal shift assay (CETSA), MTH1. Type of series: binding. Also noted: endogenous in cells; host or cells: MGC-803 (human gastric cancer cell line). The note with it: MGC-803 cells, 50 µM compound, heated 10 min from 43 to 61 °C, western blot. The procedure: as §2
(In general: Immunoblotting shows a protein as a band on a membrane.)

Series [5] concerns MGC-803 cells. Description: MTT cell viability, MGC-803. As to conditions: Homo sapiens, gastric cancer cell line, 72 h. In kind it is cell-based. The procedure:
as §1

Another series concerns ZIP177 cells. Description: MTT cell viability, ZIP177. In kind it is cell-based. As to conditions: Homo sapiens, liver cancer cell line, 72 h. As for the experimental part: as §1
The test system of another series is MCF-7 cells. Description: MTT cell viability, MCF-7. Type of series: cell-based. As to conditions: Homo sapiens, MCF7, breast cancer cell line, 72 h. As for the experimental part:
as §1

In another series the test system is TE-1 cells. Briefly: MTT cell viability, TE-1. Type of series: cell-based. The note with it: Homo sapiens, 72 h. As for the experimental part:
as §1

In a further series the test system is H1975 cells. Description: MTT cell viability, H1975. In kind it is cell-based. As to conditions: Homo sapiens, NCI-H1975, 72 h. The procedure:
as §1

Series [6] has as its system HGC-27 cells. Description: 8-oxo-dG assay (Cy3-conjugated avidin), HGC-27. In kind it is cell-based, human. As to conditions: HGC-27, 5 µM, 48 h, compared with DMSO. The procedure:
as §3

For series [7], the system named is GES-1 cells. Description: MTT cell viability, GES-1. In kind it is cell-based. The note with it: Homo sapiens, GES1, normal gastric epithelial cell line, 72 h. The procedure: as §1
For a further series, the system named is SGC-7901 cells. Briefly: MTT cell viability, SGC-7901. Type of series: cell-based. As to conditions: Homo sapiens, gastric cancer cell line, 72 h. The procedure: as §1
Series [8] in a line: Body weight and organ H&E staining in xenograft mice. Type of series: in vivo, BALB/c nude mice. The note with it: 40 mg/kg, gavage once a day for 25 days, vs oil group. As for the experimental part:
as §4

A further series deals with T3, MUTYH (Homo sapiens, UniProt Q9UIF7).
T3 construct: endogenous in cells; host or cells: MGC-803 (human gastric cancer cell line)
T3 sequence (Q9UIF7 whole entry): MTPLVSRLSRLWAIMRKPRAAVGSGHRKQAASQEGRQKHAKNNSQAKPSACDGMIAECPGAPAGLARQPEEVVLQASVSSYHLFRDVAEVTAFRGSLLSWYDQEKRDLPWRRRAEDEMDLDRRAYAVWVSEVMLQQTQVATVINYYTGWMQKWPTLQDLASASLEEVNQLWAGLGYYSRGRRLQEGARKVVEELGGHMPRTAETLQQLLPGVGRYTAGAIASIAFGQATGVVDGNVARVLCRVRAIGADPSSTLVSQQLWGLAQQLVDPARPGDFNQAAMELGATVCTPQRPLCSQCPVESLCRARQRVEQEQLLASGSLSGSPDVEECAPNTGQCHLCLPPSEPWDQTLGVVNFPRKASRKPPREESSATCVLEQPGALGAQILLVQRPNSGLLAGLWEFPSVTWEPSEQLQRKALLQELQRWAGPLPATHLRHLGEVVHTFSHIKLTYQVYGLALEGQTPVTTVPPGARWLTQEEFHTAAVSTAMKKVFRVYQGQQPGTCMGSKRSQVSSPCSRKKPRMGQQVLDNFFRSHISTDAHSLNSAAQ
Briefly: Cellular thermal shift assay (CETSA), MUTYH. As to conditions: MGC-803 cells, 50 µM compound, heated 10 min from 43 to 61 °C. In kind it is binding. As for the experimental part: as §2

The structures appear in SMILES notation.

As a reminder, the IC50 is the concentration that inhibits the measured activity by half. `C#CCSc1nc(NNC(N)=S)c(C#N)c(-c2ccc3oc(=O)ccc3c2)n1` [MI-743, 2-(5-cyano-6-(2-oxo-2H-chromen-6-yl)-2-(prop-2-yn-1-ylthio)pyrimidin-4-yl)hydrazine-1-carbothioamide]: the IC50 in the series on EC9706 cells amounted to 8.35 ± 0.92 µM; in the series on HGC-27 cells [2], 1.14 ± 0.16 µM; in the series with HepG2 cells, 6.73 ± 0.83 µM; in the series on MKN45 cells, 16 ± 1.18 µM; with MGC-803 cells [5], 2.91 ± 0.46 µM; with ZIP177 cells it was 9.36 ± 0.92 µM. Besides, the 50% inhibitory concentration (IC50) in the series with MCF-7 cells amounted to 9.67 ± 1.01 µM; with TE-1 cells it was 12.8 ± 1.07 µM; in the series with H1975 cells, 15.1 ± 1.18 µM; in the series on GES-1 cells [7], 25.5 ± 1.02 µM; with SGC-7901 cells it was 10.4 ± 1.01 µM. For the same compound, the “temperature at which MTH2 became unstable” value on MTH2 is 49 °C. Further, the colony formation entry in the series on GES-1 cells [1] is “no obviously inhibitory effect”. For the same compound, the “temperature at which OGG1 became unstable” value at OGG1 worked out at 49 °C. For the same compound, the “levels of 8-oxo-dG” value in the series with MGC-803 cells [3] and with HGC-27 cells [6] was “sharply increased” each time. Further, the “average tumor volumes in comparison with oil treatment group” value in series [4] amounted to 33.54%. Also, the “expression levels of ATMpS1981 and 8-oxo-dG in tumor tissue (immunohistochemistry)” value in [4] (vs oil group) was “sharply increased”. Moreover, on MTH1, the “incubation temperature until which MTH1 was stable” value was 61 °C. Besides, in series [8], the “H&E staining of the liver, kidney, lung, heart and spleen” value was “no signs of toxicity”. Also, the mouse body weight entry in series [8] was “did not present obvious change”. The “temperature at which MUTYH became unstable” value at MUTYH was found to be 49 °C.
